Holding throughout (type): cell-based
For experiment [1], the target named is T1, m4 muscarinic receptor subtype (Homo sapiens, UniProt P08173).
T1 construct: expressed in transfected cells; host or cells: NIH-3T3 (ATCC CRL 1658)
T1 sequence (P08173 1-479): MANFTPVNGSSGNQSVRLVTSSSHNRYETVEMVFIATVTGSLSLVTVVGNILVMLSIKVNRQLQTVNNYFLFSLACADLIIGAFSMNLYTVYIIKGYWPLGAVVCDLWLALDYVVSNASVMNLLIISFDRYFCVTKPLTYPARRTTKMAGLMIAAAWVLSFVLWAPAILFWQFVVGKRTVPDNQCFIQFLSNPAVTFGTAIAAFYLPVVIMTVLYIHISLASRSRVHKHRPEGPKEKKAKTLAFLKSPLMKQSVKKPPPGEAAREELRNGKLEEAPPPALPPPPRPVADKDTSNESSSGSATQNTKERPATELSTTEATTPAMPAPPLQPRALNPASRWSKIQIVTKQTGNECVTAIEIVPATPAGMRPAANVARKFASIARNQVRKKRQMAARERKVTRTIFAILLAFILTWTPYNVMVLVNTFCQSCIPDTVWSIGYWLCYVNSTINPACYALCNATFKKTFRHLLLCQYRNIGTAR
The experiment in a line: R-SAT assay, muscarinic receptor subtype m4. The conditions noted are these: transfected NIH-3T3 cells, 5 days; for m4 % Eff: relative to maximum response to carbachol; for EC50: read-out: m4 pEC50 (converted). The protocol: (§1) Transfected cells were grown in the presence of between 1 nM and 40 μM of the test compound for 5 days. On day 5, the cells were lysed using 0.5% Nonidet-P and β-galactosidase expression was quantified using the chromogenic substrate o-nitrophenyl-β-D-galactoside (ONGP).
(§2) Data were normalized relative to the maximum response of the cells to the muscarinic agonist carbachol, and the following equation was fitted to the data: • response=minimum+(maximum−minimum)/(1+(EC50/[ligand])) • Where [ligand]=ligand concentration. • % Efficacy was defined as: • (maximum−minimum)/(maximum response of cells to carbachol). • pEC50=−log (EC50). • Where data gave a bell-shaped curve, “maximum” was defined as the highest observed response.

Experiment [2] addresses T2, m1 muscarinic receptor subtype (Homo sapiens, UniProt P11229).
T2 construct: expressed in transfected cells; host or cells: NIH-3T3 (ATCC CRL 1658)
T2 sequence (P11229 1-460): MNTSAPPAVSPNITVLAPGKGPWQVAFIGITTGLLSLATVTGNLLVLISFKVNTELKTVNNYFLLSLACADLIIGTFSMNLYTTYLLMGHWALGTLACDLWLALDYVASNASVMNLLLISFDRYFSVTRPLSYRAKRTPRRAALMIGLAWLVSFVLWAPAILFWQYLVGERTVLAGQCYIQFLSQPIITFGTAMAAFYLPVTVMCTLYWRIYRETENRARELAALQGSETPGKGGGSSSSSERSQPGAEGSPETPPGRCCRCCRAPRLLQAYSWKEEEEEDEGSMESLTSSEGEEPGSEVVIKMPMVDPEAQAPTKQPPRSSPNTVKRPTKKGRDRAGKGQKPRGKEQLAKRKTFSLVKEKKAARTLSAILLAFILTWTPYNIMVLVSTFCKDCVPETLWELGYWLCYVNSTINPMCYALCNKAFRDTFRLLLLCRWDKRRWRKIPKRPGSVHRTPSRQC
The experiment in a line: R-SAT assay, muscarinic receptor subtype m1. As to conditions: transfected NIH-3T3 cells, 5 days; for m1 % Eff: relative to maximum response to carbachol; for EC50: read-out: m1 pEC50 (converted). On the procedure: as §1, §2

Experiment [3] addresses T3, m5 muscarinic receptor subtype (Homo sapiens, UniProt P08912).
T3 construct: expressed in transfected cells; host or cells: NIH-3T3 (ATCC CRL 1658)
T3 sequence (P08912 1-532): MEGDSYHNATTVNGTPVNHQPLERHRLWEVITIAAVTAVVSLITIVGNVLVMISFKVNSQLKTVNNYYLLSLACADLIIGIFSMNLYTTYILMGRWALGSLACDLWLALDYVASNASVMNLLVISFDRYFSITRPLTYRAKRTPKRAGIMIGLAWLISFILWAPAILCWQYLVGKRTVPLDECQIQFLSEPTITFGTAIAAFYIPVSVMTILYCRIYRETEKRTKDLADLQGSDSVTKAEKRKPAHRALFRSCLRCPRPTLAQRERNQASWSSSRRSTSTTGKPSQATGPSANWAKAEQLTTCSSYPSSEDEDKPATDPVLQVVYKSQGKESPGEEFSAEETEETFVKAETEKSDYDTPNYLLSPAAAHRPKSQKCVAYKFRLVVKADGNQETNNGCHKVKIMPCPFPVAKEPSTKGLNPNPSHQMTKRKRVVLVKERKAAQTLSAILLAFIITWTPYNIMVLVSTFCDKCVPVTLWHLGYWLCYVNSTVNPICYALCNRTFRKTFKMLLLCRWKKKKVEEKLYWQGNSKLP
In words: R-SAT assay, muscarinic receptor subtype m5. The conditions noted are these: transfected NIH-3T3 cells, 5 days, relative to maximum response to carbachol. The protocol: (§3) Screening Of Test Compounds In An Assay Using Muscarinic Receptor Subtypes m1, m2, m3, m4 and m5. The m1, m2, m3, m4 and m5 muscarinic receptor subtypes were cloned substantially as described by Bonner et al., Science […] and Bonner et al., Neuron 1:403 (1988). R-SAT assays were carried out substantially as described in U.S. Pat. Nos. 5,707,798, 5,912,132, and 5,955,281, and by Braüner-Osborne & Brann, Eur. J. Pharmacol. 295:93 (1995). NIH-3T3 cells (available from the American Type Culture Collection as ATCC CRL 1658) were transfected with plasmid DNA encoding the m1, m2, m3, m4 or m5 receptors and plasmid DNA encoding β-galactosidase. Transfected cells were grown in the presence of between 1 nM and 40 μM of the test compound for 5 days. On day 5, the cells were lysed using 0.5% Nonidet-P and β-galactosidase expression was quantified using the chromogenic substrate o-nitrophenyl-β-D-galactoside (ONGP).
as §2

For experiment [4], the target named is T4, m2 muscarinic receptor subtype (Homo sapiens, UniProt P08172).
T4 construct: expressed in transfected cells; host or cells: NIH-3T3 (ATCC CRL 1658)
T4 sequence (P08172 1-466): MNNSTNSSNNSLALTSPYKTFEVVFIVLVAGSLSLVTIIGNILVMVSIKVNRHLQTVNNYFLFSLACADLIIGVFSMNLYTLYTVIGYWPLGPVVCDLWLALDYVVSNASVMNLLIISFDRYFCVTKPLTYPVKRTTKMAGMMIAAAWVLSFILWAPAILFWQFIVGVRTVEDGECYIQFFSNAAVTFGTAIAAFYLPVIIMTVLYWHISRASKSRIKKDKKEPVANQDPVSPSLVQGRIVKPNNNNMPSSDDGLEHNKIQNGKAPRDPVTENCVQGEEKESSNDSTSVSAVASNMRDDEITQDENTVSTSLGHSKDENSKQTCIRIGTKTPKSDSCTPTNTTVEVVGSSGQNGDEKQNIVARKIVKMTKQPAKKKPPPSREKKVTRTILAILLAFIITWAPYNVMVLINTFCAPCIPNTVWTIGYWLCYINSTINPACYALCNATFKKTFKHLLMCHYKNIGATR
The experiment in a line: R-SAT assay, muscarinic receptor subtype m2. The conditions noted are these: transfected NIH-3T3 cells, 5 days, relative to maximum response to carbachol. On the procedure: as §3, §2

The target in experiment [5] is T5, m3 muscarinic receptor subtype (Homo sapiens, UniProt P20309).
T5 construct: expressed in transfected cells; host or cells: NIH-3T3 (ATCC CRL 1658)
T5 sequence (P20309 whole entry): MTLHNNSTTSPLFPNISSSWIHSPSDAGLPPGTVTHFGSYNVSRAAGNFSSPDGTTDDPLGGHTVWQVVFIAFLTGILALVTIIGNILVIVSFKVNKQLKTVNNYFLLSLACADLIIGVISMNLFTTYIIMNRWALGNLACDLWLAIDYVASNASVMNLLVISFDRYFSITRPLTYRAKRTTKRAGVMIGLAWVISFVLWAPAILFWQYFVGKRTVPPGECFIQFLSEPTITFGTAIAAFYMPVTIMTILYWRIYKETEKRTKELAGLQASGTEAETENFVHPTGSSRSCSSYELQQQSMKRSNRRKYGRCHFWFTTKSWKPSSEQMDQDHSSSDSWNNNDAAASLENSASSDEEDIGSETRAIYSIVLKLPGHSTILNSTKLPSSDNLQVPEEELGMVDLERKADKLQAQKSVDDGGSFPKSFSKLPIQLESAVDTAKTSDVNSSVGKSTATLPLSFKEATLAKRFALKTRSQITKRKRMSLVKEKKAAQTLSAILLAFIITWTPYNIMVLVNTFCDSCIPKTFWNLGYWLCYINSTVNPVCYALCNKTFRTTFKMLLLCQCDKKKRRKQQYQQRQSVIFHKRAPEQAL
The experiment in a line: R-SAT assay, muscarinic receptor subtype m3. The conditions noted are these: transfected NIH-3T3 cells, 5 days, relative to maximum response to carbachol. On the procedure: as §3, §2

As for “1-[3-(4-Butyl-piperidin-1-yl)-propyl]-5,6-dimethyl-1H-benzoimidazole [Example 81]”, in experiment [1], the “m4 pEC50” value was below 5.5 and the “m4 % Eff” value amounted to 77%. Moreover, in experiment [2], the “m1 pEC50” value worked out at 6.4 and the “m1 % Eff” value is reported as 72%.

As to “2-[3-(4-Butylpiperidin-1-yl)-propyl]-1-methyl-1H-benzimidazole [Example 73]”, the “m4 % Eff” value in experiment [1] is “no response (No response: Efficacy <25% maximum response of carbachol. This level of activity is not considered significantly different to no response.)”. Also, in experiment [2], the “m1 pEC50” value is 6.2 and the “m1 % Eff” value stood at 37%.

With “3-[3-(4-Butyl-piperidin-1-yl)-propyl]-benzo[d]isothiazole [Example 93]”, in experiment [3], the “m5 % Eff” value is reported as “no response (No response: Efficacy <25% maximum response of carbachol. This level of activity is not considered significantly different to no response.)”. For the same compound, in experiment [1], the “m4 pEC50” value turned out to be 6.4 and the “m4 % Eff” value is 58%. In addition, in experiment [2], the “m1 pEC50” value amounted to 7.1 and the “m1 % Eff” value was 83%. Besides, the “m2 % Eff” value in experiment [4] was “no response (No response: Efficacy <25% maximum response of carbachol. This level of activity is not considered significantly different to no response.)”. Further, the “m3 % Eff” value in experiment [5] was “no response (No response: Efficacy <25% maximum response of carbachol. This level of activity is not considered significantly different to no response.)”.

On to `CCCCC1CCN(CCCn2ccc3ccccc32)CC1` [Example 12, 1-(3-(4-n-Butylpiperidine)-1-yl-propyl)-1H-indole], for which the “m5 % Eff” value in experiment [3] is “no response (No response: Efficacy <25% maximum response of carbachol. This level of activity is not considered significantly different to no response.)”. In experiment [2], the “m1 pEC50” value came to 5.9 and the “m1 % Eff” value worked out at 59%. For the same compound, the “m2 % Eff” value in experiment [4] is recorded as “no response (No response: Efficacy <25% maximum response of carbachol. This level of activity is not considered significantly different to no response.)”. Further, the “m3 % Eff” value in experiment [5] is given as “no response (No response: Efficacy <25% maximum response of carbachol. This level of activity is not considered significantly different to no response.)”.

`CCCCC1CCN(CCCc2noc3ccccc23)CC1` [Example 24, 3-(3-(4-n-Butylpiperidine)-1-yl-propyl)-benzo[d]isoxazole]: the “m5 % Eff” value in experiment [3] was “no response (No response: Efficacy <25% maximum response of carbachol. This level of activity is not considered significantly different to no response.)”. In addition, in experiment [1], the EC50 was 501 nM and the “m4 % Eff” value amounted to 41%. For the same compound, in experiment [2], the EC50 is 126 nM and the “m1 % Eff” value is 75%. Also, the “m2 % Eff” value in experiment [4] is “no response (No response: Efficacy <25% maximum response of carbachol. This level of activity is not considered significantly different to no response.)”. In experiment [5], the “m3 % Eff” value is given as “no response (No response: Efficacy <25% maximum response of carbachol. This level of activity is not considered significantly different to no response.)”.

For the compound `CCCCC1CCN(CCCc2nc3c([N+](=O)[O-])cccc3[nH]2)CC1` [Example 28, 4-Nitro-2-(3-(4-n-butylpiperidine)-1-yl-propyl)-1H-benzoimidazole], the “m5 % Eff” value in experiment [3] was “no response (No response: Efficacy <25% maximum response of carbachol. This level of activity is not considered significantly different to no response.)”. Moreover, in experiment [1], the “m4 % Eff” value is recorded as “no response (No response: Efficacy <25% maximum response of carbachol. This level of activity is not considered significantly different to no response.)”. For the same compound, in experiment [2], the “m1 pEC50” value turned out to be 6.5 and the “m1 % Eff” value is given as 38%. Further, in experiment [5], the “m3 % Eff” value is “no response (No response: Efficacy <25% maximum response of carbachol. This level of activity is not considered significantly different to no response.)”.

Turning to `CC(C)CCC1CCN(CCCn2ncc3ccccc32)CC1` [Example 42, 1-(3-(4-(3-Methyl-butyl)-piperidine)-1-yl-propyl)-1H-indazole], in experiment [2], the “m1 pEC50” value was 7.1 and the “m1 % Eff” value was 51%.

With `CCCCC=C1CCN(CCCn2ncc3ccccc32)CC1` [Example 43, 1-(3-(4-Pentylidene-piperidine)-1-yl-propyl)-1H-indazole], the “m5 % Eff” value in experiment [3] was “no response (No response: Efficacy <25% maximum response of carbachol. This level of activity is not considered significantly different to no response.)”. Also, in experiment [1], the EC50 was 1000 nM and the “m4 % Eff” value was 30%. In experiment [2], the EC50 is 501 nM and the “m1 % Eff” value was determined as 66%.

As for `CCC=C1CCN(CCCn2ncc3ccccc32)CC1` [Example 44, 1-(3-(4-Propylidene-piperidine)-1-yl-propyl)-1H-indazole], in experiment [2], the “m1 pEC50” value stood at 6.1 and the “m1 % Eff” value is listed as 72%.

Take `CCCCC1CCN(CCCn2nc(Cl)c3ccccc32)CC1` [Example 65, 1-[3-(4-Butylpiperidin-1-yl)-propyl]-3-chloro-1H-indazole]: in experiment [1], the “m4 pEC50” value was below 5.5 and the “m4 % Eff” value is recorded as 34%. In addition, in experiment [2], the “m1 pEC50” value amounted to 6.0 and the “m1 % Eff” value is recorded as 45%. In addition, the “m2 % Eff” value in experiment [4] was “no response (No response: Efficacy <25% maximum response of carbachol. This level of activity is not considered significantly different to no response.)”.

For the compound `CCCCC1CCN(CCCn2c(C)cc3ccccc32)CC1` [Example 77, 1-[3-(4-Butyl-piperidin-1-yl)-propyl]-2-methyl-1H-indole], in experiment [1], the “m4 pEC50” value is given as 6.3 and the “m4 % Eff” value is given as 96%. Further, in experiment [2], the “m1 pEC50” value is listed as 7.0 and the “m1 % Eff” value amounted to 71%.

Source of the values: patent US20070155795A1, “MUSCARINIC AGONISTS” (ACADIA Pharmaceuticals Inc., priority 2000, published 2007).
